Assay results as given in ChEMBL document CHEMBL6092192 (J Med Chem, 2024).
The source made the active and inactive calls. The rule behind the calls is not given here.

Key:
[1] = Toxicity in BALB/c nude mouse assessed as mortality at 100 mg/kg/day, IG measured after 21 days in presence of paclitaxel; assay type: organism-based; conditions: in vivo, po, 504 h, time 21 day
hERG (KCNH2) = hERG (KCNH2) (Homo sapiens, UniProt Q12809); assay: Inhibition of human ERG expressed in CHO cells at 40 uM by QPatch assay relative to control; assay type: toxicity, cell-based; conditions: CHO cells expressing human ERG
Sequence of hERG (KCNH2) (Q12809 whole entry): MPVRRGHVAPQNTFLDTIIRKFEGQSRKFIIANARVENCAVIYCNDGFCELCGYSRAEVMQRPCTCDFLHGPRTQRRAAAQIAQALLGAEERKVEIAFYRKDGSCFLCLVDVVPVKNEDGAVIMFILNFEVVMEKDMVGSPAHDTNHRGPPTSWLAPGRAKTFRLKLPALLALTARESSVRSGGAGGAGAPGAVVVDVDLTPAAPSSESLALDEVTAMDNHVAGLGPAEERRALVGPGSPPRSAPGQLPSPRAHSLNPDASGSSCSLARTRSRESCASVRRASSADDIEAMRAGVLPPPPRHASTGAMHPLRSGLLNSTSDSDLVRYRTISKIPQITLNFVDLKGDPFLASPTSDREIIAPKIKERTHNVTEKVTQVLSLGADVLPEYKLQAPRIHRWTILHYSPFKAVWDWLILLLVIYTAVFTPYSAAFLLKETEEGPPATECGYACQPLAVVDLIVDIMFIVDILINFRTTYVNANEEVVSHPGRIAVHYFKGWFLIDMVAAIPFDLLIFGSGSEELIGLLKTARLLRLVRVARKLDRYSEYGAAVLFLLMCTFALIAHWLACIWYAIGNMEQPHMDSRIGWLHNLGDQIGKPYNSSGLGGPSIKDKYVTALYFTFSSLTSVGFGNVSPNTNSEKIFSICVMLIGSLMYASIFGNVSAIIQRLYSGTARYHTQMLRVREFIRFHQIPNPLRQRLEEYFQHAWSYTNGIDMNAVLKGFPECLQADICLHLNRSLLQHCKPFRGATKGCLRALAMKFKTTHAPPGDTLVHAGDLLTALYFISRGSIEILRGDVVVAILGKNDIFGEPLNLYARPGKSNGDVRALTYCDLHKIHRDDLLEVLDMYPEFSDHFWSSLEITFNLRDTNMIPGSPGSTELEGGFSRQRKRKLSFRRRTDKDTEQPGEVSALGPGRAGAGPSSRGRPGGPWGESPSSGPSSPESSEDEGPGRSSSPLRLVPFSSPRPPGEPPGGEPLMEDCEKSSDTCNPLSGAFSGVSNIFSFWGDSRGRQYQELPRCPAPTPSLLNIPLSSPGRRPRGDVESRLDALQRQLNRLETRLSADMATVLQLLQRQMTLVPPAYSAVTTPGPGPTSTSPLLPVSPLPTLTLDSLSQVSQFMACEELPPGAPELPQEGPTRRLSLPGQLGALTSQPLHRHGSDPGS

[2] = Toxicity in BALB/c nude mouse xenografted with […] CT26/TAXOL cells assessed as effect on heart at 100 mg/kg/day, IG in presence of paclitaxel measured after 14 days by H and E staining based analysis; assay type: organism-based; conditions: in vivo, po, 336 h, time 14 day
CT26/TAXOL = assay: Antitumor T-cell immune response in […] cells xenografted in BALB/c nude mouse model assessed as increase in CD8+ T-cell infiltration at 100 mg/kg/day, IG in presence of anti-PD-1/paclitaxel measured after 14 days by immunofluorescence staining based analysis; assay type: functional, organism-based; conditions: time 14.0 day
SW620/AD300 [3] = assay: Reversal of paclitaxel resistance in human SW620/AD300 cells assessed as reversal fold by measuring ratio of paclitaxel IC50 to paclitaxel IC50 in presence of test compound at 4 uM incubated for 72 hrs by MTT assay; assay type: functional
Cytochrome P450 3A4 = Cytochrome P450 3A4 (Homo sapiens, UniProt P08684); assay: Activation of recombinant CYP3A4 in human liver microsomes at 30 uM measured upto 40 mins in presence of NADPH generating system by fluorescence based analysis; assay type: ADME, Microsome
Sequence of Cytochrome P450 3A4 (P08684 whole entry): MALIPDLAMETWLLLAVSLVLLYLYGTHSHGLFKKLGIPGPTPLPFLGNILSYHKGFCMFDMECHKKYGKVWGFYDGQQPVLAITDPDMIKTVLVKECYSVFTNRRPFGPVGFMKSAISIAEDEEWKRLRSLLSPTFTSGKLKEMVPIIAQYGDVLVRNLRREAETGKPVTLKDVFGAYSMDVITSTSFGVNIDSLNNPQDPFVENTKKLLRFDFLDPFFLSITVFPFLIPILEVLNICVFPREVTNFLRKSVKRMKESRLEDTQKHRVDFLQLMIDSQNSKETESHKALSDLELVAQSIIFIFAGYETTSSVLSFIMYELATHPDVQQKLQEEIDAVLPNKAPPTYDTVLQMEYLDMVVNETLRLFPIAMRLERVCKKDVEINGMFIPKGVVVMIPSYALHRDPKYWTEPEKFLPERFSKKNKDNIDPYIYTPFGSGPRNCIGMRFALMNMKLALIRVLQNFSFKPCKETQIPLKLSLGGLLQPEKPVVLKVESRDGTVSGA

[4] = Cmax in 12 hrs fasted Sprague-Dawley rat at 10 mg/kg, po measured upto 720 mins by HPLC-MS/MS analysis; assay type: ADME, organism-based; conditions: in vivo
KB 3-1 [5] = assay: Cytotoxicity against human KB 3-1 cells assessed as survival rate at 2 uM measured after 72 hrs by MTT assay relative to control; assay type: functional; conditions: read-out: Survival
[6] = Toxicity in BALB/c nude mouse xenografted with […] CT26/TAXOL cells assessed as effect on kidney at 100 mg/kg/day, IG in presence of paclitaxel measured after 14 days by H and E staining based analysis; assay type: organism-based; conditions: in vivo, po, 336 h, time 14 day
[7] = Reversal of paclitaxel resistance in HEK293 cells transfected with pcDNA3.1 assessed as reversal fold by measuring ratio of paclitaxel IC50 to paclitaxel IC50 in presence of test compound at 4 uM incubated for 72 hrs by MTT assay; assay type: functional, Homo sapiens
[8] = Tmax in 12 hrs fasted Sprague-Dawley rat at 1 mg/kg, iv measured upto 720 mins by HPLC-MS/MS analysis; assay type: ADME, organism-based; conditions: in vivo
[9] = molecular target: T1, ATP-dependent translocase ABCB1 (Homo sapiens, UniProt P08183); assay: Activation of ABCB1 ATPase activity (unknown origin) infected in insect cells at 18.5 uM incubated for 20 mins in presence of Mg-ATP by spectrophotometric analysis; assay type: cell-based; conditions: insect cell
T1 sequence (P08183 whole entry): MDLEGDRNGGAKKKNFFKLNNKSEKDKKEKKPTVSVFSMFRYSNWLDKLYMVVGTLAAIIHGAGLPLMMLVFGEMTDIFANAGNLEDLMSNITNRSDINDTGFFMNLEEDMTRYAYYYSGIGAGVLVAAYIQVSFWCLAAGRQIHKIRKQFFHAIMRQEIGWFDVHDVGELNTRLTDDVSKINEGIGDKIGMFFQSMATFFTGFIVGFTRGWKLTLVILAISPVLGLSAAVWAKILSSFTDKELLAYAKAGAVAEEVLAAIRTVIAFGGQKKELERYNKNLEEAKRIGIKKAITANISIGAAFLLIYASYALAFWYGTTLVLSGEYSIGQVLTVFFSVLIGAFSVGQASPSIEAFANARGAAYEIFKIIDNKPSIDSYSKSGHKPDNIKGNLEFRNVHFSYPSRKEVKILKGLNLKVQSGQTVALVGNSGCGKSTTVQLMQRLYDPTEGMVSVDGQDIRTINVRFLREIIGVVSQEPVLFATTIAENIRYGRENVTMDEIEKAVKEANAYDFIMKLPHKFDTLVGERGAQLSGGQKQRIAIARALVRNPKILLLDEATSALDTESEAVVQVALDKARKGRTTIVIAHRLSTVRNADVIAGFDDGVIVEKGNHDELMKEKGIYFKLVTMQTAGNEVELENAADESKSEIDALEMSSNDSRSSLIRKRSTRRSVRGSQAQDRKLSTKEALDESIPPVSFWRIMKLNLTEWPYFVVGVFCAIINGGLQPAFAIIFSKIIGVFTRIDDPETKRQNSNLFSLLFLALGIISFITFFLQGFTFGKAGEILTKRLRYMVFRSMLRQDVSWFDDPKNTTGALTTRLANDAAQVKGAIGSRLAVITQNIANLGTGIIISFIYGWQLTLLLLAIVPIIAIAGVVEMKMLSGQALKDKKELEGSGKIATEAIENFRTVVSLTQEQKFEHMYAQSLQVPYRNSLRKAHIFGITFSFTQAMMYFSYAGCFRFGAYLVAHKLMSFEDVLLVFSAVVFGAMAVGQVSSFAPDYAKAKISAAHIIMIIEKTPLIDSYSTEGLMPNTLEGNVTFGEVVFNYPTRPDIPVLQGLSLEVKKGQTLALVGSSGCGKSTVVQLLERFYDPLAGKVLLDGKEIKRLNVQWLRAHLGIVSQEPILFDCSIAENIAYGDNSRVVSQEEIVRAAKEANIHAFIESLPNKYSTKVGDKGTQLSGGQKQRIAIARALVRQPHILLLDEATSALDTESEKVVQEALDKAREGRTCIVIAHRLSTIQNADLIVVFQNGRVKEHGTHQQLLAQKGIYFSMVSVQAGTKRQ

HEK293 [10] = assay: Cytotoxicity against HEK293 cells transfected with pcDNA3.1 assessed as survival rate at 5 uM measured after 72 hrs by MTT assay relative to control; assay type: functional; conditions: Homo sapiens, read-out: Survival
[11] = Toxicity in BALB/c nude mouse xenografted with […] CT26/TAXOL cells assessed as change in body weight at 100 mg/kg/day, IG measured upto 14 days in presence of paclitaxel/anti-PD-1; assay type: organism-based; conditions: in vivo, po, 336 h, time < 14 day
SW-620 = assay: Reversal of paclitaxel resistance in human SW620 cells assessed as reversal fold by measuring ratio of paclitaxel IC50 to paclitaxel IC50 in presence of test compound at 4 uM incubated for 72 hrs by MTT assay; assay type: functional
KB 3-1 [12] = assay: Reversal of paclitaxel resistance in human KB 3-1 cells assessed as reversal fold by measuring ratio of paclitaxel IC50 to paclitaxel IC50 in presence of test compound at 2 uM incubated for 72 hrs by MTT assay; assay type: functional
KB 3-1 [13] = assay: Reversal of paclitaxel resistance in human KB 3-1 cells assessed as reversal fold by measuring ratio of paclitaxel IC50 to paclitaxel IC50 in presence of test compound at 4 uM incubated for 72 hrs by MTT assay; assay type: functional
[14] = MRT (0 to infinity) in 12 hrs fasted Sprague-Dawley rat at 10 mg/kg, po measured upto 720 mins by HPLC-MS/MS analysis; assay type: ADME, organism-based; conditions: in vivo
[15] = Toxicity in BALB/c nude mouse xenografted with […] CT26/TAXOL cells assessed as mortality at 100 mg/kg/day, IG measured upto 14 days in presence of paclitaxel; assay type: organism-based; conditions: in vivo, po, 336 h, time < 14 day
[16] = Toxicity in BALB/c nude mouse xenografted with […] CT26/TAXOL cells assessed as effect on liver at 100 mg/kg/day, IG in presence of paclitaxel/anti-PD-1 measured after 14 days by H and E staining based analysis; assay type: organism-based; conditions: in vivo, po, 336 h, time 14 day
[17] = Toxicity in BALB/c nude mouse assessed as effect on liver liver injury at 100 mg/kg/day, IG measured after 21 days in presence of paclitaxel by H and E staining based analysis; assay type: organism-based; conditions: in vivo, po, 504 h, time 21 day
SW620/AD300 [18] = assay: Reversal of paclitaxel resistance in human SW620/AD300 cells assessed as reversal fold by measuring ratio of paclitaxel IC50 to paclitaxel IC50 in presence of test compound incubated for 72 hrs by MTT assay; assay type: functional
[19] = Toxicity in BALB/c nude mouse xenografted with […] CT26/TAXOL cells assessed as effect on brain at 100 mg/kg/day, IG in presence of paclitaxel/anti-PD-1 measured after 14 days by H and E staining based analysis; assay type: organism-based; conditions: in vivo, po, 336 h, time 14 day
[20] = Toxicity in BALB/c nude mouse xenografted with […] CT26/TAXOL cells assessed as effect on spleen at 100 mg/kg/day, IG measured after 14 days by H and E staining based analysis; assay type: organism-based; conditions: in vivo, po, 336 h, time 14 day
[21] = Tmax in 12 hrs fasted Sprague-Dawley rat at 10 mg/kg, po measured upto 720 mins by HPLC-MS/MS analysis; assay type: ADME, organism-based; conditions: in vivo
[22] = molecular target: T1, ATP-dependent translocase ABCB1; assay: Inhibition of ABCB1 in human SW620/AD300 cells assessed as increase in intracellular paclitaxel incubated for 4 hrs by liquid scintillation analysis; assay type: cell-based; conditions: sw620/ad300, 4 h, at 2 to 4 µM, dose 2-4 µM
[23] = Cmax in 12 hrs fasted Sprague-Dawley rat at 1 mg/kg, iv measured upto 720 mins by HPLC-MS/MS analysis; assay type: ADME, organism-based; conditions: in vivo
HEK293 [24] = assay: Cytotoxicity against HEK293 cells transfected with pcDNA3.1 assessed as survival rate at 2 uM measured after 72 hrs by MTT assay relative to control; assay type: functional; conditions: Homo sapiens, read-out: Survival
[25] = Toxicity in Sprague-Dawley rat assessed as change in body weight at 250 to 1000 mg/kg, po measured for 14 days administered as single dose; assay type: organism-based; conditions: in vivo, 336 h, dose 250-1000 mg/kg, time 14 day
SW620/AD300 [26] = assay: Cytotoxicity against multidrug resistant human SW620/AD300 cells assessed as survival rate at 4 uM measured after 72 hrs by MTT assay relative to control; assay type: functional; conditions: read-out: Survival
SW620/AD300 [27] = assay: Antitumor activity against human SW620/AD300 cells xenografted in male BALB/c nude mouse model assessed as reduction in tumor weight at 100 mg/kg/day, IG measured after 21 days in presence of paclitaxel; assay type: functional, organism-based; conditions: time 21.0 day

In the case of `O=c1c2c([nH]c3nc(SCc4nc5ccccc5s4)nn13)CCC2`, the Activity [1] is reported as “Non-toxic”, the inhibition at 40 µM (hERG (KCNH2)) is reported as 32% and the Activity [2] is reported as “Non-toxic”. The Activity (CT26/TAXOL) was “Active”, the “Ratio IC50” value (SW620/AD300 [3]) was 730.33 and the Activity (Cytochrome P450 3A4) was “Active”. For the same compound, the Cmax [4] was 504 ng/mL, the viability at 2 µM (KB 3-1 [5]) was 99.6% and the Activity [6] was “Non-toxic”. For the same compound, the “Ratio IC50” value [7] was 1.16, the Tmax [8] was 4.98 min and the Activity [9] was “Active”. For the same compound, the viability at 5 µM (HEK293 [10]) was 94.3%, the Activity [11] was “Non-toxic” and the “Ratio IC50” value (SW-620) was 1.06. The “Ratio IC50” value (KB 3-1 [12]) was 1.05, the “Ratio IC50” value (KB 3-1 [13]) was 1.39 and the MRT inf [14] was 7.24 h. For the same compound, the Activity [15] was “Non-toxic”, the Activity [16] was “Non-toxic” and the Activity [17] was “Non-toxic”. The “Ratio IC50” value (SW620/AD300 [18]) was 864, the Activity [19] was “Non-toxic” and the Activity [20] was “Non-toxic”. The Tmax [21] was 6 h, the “inhibition (INH)” value [22] was “Dose-dependent-effect” and the Cmax [23] was 380 ng/mL. The viability at 2 µM (HEK293 [24]) was 97.8%, the Activity [25] was “Non-toxic” and the viability at 4 µM (SW620/AD300 [26]) was 95.6%. The Activity (SW620/AD300 [27]) was “Active”.
